Our source for the hypouricemic effect and IC50 values is patent US9388174B2, “Azole benzene derivative” (TEIJIN PHARMA LIMITED, priority 2013, dated 2016).

The structures appear in SMILES notation.

In experiment [1] the test system is level of uric acid in the plasma. The experiment is described as follows: Hypouricemic effect (oxonic acid-induced hyperuricemic beagle dogs). It is filed as in vivo. The settings on record: hyperuricemic beagle dog, oral, 10 mg/kg, 8 hours after administration. As to the method:
Potassium oxonate (50 mg/kg) was subcutaneously administrated before and 4 hours after compound administration. After the blood was collected from the cephalic vein at 8 hours after administration, the plasma was separated. The level of uric acid in the plasma sample was measured by LC-MS/MS method and the percentage of hypouricemic effect was determined by the following expression: Percentage of hypouricemic effect (%)=(Level of uric acid of the control animal−Level of uric acid of the test compound-administered animal)×100/Level of uric acid of the control animal.

Experiment [2] addresses T1, oxidase-type xanthine oxidoreductase (from buttermilk) (Bos taurus, UniProt P80457).
T1 construct: purchased Calbiochem Novabiochem Corp; host or cells: buttermilk (natural source)
Description: xanthine oxidase inhibitory activity (change of absorbance at 290 nm). The experiment is classed as biochemical. To be noted: xanthine substrate, read-out: Inhibitor Activity. As for the experimental part: Test compound was dissolved in DMSO (manufactured by Sigma Co.) to prepare a 20 mM solution. The solution was adjusted to an optimal concentration and used for the testing.
This evaluation was carried out by measuring oxidase-type xanthine oxidoreductase activity. Concretely, a xanthine (manufactured by Sigma Co.) solution was prepared at 10 mM using a 20 mM sodium hydroxide solution and then mixed with 100 mM phosphate buffer to adjusted to 30 μM. 75 μL of the solution was added to each well of the 96-well plate. The test compound diluted with DMSO at 100 times of a final concentration was added to each well at 1.5 μL per well. […] Immediately after mixing, the change of absorbance at 290 nm was measured for 5 minutes. The enzyme activity of DMSO solution without test compound was used as 100% control, and the inhibitory rate of the test compounds was calculated. Fifty percent inhibitory concentration of the test compounds on the oxidase-type xanthine oxidoreductase activity was calculated by fitting to the dose-response curve.

T1 sequence (P80457 whole entry): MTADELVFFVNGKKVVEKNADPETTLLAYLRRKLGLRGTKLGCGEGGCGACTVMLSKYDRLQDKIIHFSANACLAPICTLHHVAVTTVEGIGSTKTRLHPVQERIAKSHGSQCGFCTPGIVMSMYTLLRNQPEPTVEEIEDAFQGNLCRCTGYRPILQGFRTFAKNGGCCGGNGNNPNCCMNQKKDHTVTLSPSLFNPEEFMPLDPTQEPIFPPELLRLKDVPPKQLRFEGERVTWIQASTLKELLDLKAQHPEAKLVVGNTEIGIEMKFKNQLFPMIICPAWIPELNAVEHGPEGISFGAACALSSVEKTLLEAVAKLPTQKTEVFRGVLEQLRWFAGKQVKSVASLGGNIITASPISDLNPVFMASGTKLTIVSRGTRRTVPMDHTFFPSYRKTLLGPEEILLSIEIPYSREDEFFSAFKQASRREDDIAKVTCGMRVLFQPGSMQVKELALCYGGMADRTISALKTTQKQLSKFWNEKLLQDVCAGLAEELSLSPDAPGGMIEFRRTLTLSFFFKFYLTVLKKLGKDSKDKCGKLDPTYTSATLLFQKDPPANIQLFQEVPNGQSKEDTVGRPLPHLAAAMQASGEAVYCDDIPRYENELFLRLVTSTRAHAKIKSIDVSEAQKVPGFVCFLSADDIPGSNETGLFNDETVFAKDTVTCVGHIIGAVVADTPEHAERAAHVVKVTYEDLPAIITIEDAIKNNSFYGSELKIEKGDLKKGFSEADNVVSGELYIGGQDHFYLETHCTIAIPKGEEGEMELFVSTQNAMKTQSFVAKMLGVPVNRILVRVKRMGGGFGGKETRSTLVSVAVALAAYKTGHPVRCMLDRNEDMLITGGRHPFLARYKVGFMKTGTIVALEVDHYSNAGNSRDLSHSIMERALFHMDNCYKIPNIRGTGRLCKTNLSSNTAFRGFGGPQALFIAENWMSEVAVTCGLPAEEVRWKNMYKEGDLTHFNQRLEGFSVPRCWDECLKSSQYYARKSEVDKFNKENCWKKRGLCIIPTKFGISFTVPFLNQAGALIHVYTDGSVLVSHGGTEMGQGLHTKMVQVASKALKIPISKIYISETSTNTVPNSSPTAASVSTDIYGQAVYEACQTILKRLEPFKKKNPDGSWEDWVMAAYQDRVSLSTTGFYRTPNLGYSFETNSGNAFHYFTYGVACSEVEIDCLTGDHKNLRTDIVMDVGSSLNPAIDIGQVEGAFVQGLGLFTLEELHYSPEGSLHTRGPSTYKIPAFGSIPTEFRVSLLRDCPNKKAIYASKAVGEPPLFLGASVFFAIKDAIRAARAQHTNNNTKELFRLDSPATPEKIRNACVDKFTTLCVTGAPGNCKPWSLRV

On to `Cc1nc(-c2ccc(OCC(C)C)c(-n3cnnn3)c2)sc1C(=O)O` [Compound No. 25, 4-methyl-2-[4-(2-methylpropoxy)-3-(1H-1,2,3,4-tetrazol-1-yl)phenyl]-1,3-thiazole-5-carboxylic acid], for which the hypouricemic effect entry in experiment [1] is given as “showed a hypouricemic effect”. `CC(C)COc1ccc(-c2ncc(C(=O)O)s2)cc1-n1ccnn1` [compound 21, 2-[4-(2-methylpropoxy)-3-(1H-1,2,3-triazol-1-yl)phenyl]-1,3-thiazole-5-carboxylic acid]: in experiment [2], the IC50 fell in the range of 1 to 5 nM. Still for that read-out and setting: to `Cc1nc(-c2ccc(Oc3ccccc3)c(-n3ccnn3)c2)sc1C(=O)O` [compound 22, 4-methyl-2-[4-phenoxy-3-(1H-1,2,3-triazol-1-yl)phenyl]-1,3-thiazole-5-carboxylic acid] belongs greater than 10 nM; to `Cc1nc(-c2ccc(OCC(C)(C)C)c(-n3cnnn3)c2)sc1C(=O)O` [compound 26, 2-[4-(2,2-dimethylpropoxy)-3-(1H-1,2,3,4-tetrazol-1-yl)phenyl]-4-methyl-1,3-thiazole-5-carboxylic acid], 1 to 5 nM; to `Cc1nc(-c2ccc(OCC3CCC3)c(-n3cnnn3)c2)sc1C(=O)O` [compound 27, 2-[4-(cyclobutylmethoxy)-3-(1H-1,2,3,4-tetrazol-1-yl)phenyl]-4-methyl-1,3-thiazole-5-carboxylic acid], 1 to 5 nM. The same measure, in the same setting: the figure for `Cc1nc(-c2ccc(OC3CCCC3)c(-n3cnnn3)c2)sc1C(=O)O` [compound 28, 2-[4-(cyclopentyloxy)-3-(1H-1,2,3,4-tetrazol-1-yl)phenyl]-4-methyl-1,3-thiazole-5-carboxylic acid] is 1 to 5 nM; for `CC(C)Oc1ccc(-c2ncc(C(=O)O)s2)cc1-n1cnnn1` [compound 31, 2-[4-(propan-2-yloxy)-3-(1H-1,2,3,4-tetrazol-1-yl)phenyl]-1,3 thiazole-5-carboxylic acid] it is 1 to 5 nM; for `CC(C)COc1ccc(-c2ncc(C(=O)O)s2)cc1-n1cnnn1` [compound 32, 2-[4-(2-methylpropoxy)-3-(1H-1,2,3,4-tetrazol-1-yl)phenyl]-1,3 thiazole-5-carboxylic acid] it is 1 to 5 nM. Take `Cc1nc(-c2ccc(Oc3ccccc3F)c(-n3cnnn3)c2)sc1C(=O)O` [compound 34, 2-[4-(2-fluorophenoxy)-3-(1H-1,2,3,4-tetrazol-1-yl)phenyl]-4-methyl-1,3-thiazole-5-carboxylic acid]: the IC50 in experiment [2] was 1 to 5 nM. For `COc1ccccc1Oc1ccc(-c2nc(C)c(C(=O)O)s2)cc1-n1cnnn1` [compound 35, 2-[4-(2-methoxyphenoxy)-3-(1H-1,2,3,4-tetrazol-1-yl)phenyl]-4-methyl-1,3-thiazole-5-carboxylic acid], the IC50 in experiment [2] lay within 1 to 5 nM. The same measure, in the same setting: to `Cc1nc(-c2ccc(Oc3c(F)cccc3F)c(-n3cnnn3)c2)sc1C(=O)O` [compound 36, 2-[4-(2,6-difluorophenoxy)-3-(1H-1,2,3,4-tetrazol-1-yl)phenyl]-4-methyl-1,3-thiazole-5-carboxylic acid] belongs 1 to 5 nM; to `Cc1nc(-c2ccc(Oc3cccc(F)c3)c(-n3cnnn3)c2)sc1C(=O)O` [compound 37, 2-[4-(3-fluorophenoxy)-3-(1H-1,2,3,4-tetrazol-1-yl)phenyl]-4-methyl-1,3-thiazole-5-carboxylic acid], 1 to 5 nM; to `Cc1cccc(Oc2ccc(-c3nc(C)c(C(=O)O)s3)cc2-n2cnnn2)c1` [compound 38, 2-[4-(3-methylphenoxy)-3-(1H-1,2,3,4-tetrazol-1-yl)phenyl]-4-methyl-1,3-thiazole-5-carboxylic acid], 1 to 5 nM. The same measure, in the same setting: the figure for `Cc1nc(-c2ccc(Oc3ccccc3Cl)c(-n3cnnn3)c2)sc1C(=O)O` [compound 39, 2-[4-(2-chlorophenoxy)-3-(1H-1,2,3,4-tetrazol-1-yl)phenyl]-4-methyl-1,3-thiazole-5-carboxylic acid] is 1 to 5 nM. Regarding `Cc1cc(Oc2ccc(-c3nc(C)c(C(=O)O)s3)cc2-n2cnnn2)ccc1F` [compound 40, 2-[4-(4-fluoro-3-methylphenoxy)-3-(1H-1,2,3,4-tetrazol-1-yl)phenyl]-4-methyl-1,3-thiazole-5-carboxylic acid], the IC50 in experiment [2] was in the range of 1 to 5 nM. Regarding `Cc1cc(F)ccc1Oc1ccc(-c2nc(C)c(C(=O)O)s2)cc1-n1cnnn1` [compound 41, 2-[4-(4-fluoro-2-methylphenoxy)-3-(1H-1,2,3,4-tetrazol-1-yl)phenyl]-4-methyl-1,3-thiazole-5-carboxylic acid], the IC50 in experiment [2] fell in the range of 1 to 5 nM. In the case of `Cc1nc(-c2ccc(Oc3ccc(F)cc3F)c(-n3cnnn3)c2)sc1C(=O)O` [compound 42, 2-[4-(2,4-difluorophenoxy)-3-(1H-1,2,3,4-tetrazol-1-yl)phenyl]-4-methyl-1,3-thiazole-5-carboxylic acid], the IC50 in experiment [2] lay in the range of 1 to 5 nM.

As to `COc1cccc(F)c1Oc1ccc(-c2nc(C)c(C(=O)O)s2)cc1-n1cnnn1` [compound 43, 2-[4-(2-fluoro-6-methoxyphenoxy)-3-(1H-1,2,3,4-tetrazol-1-yl)phenyl]-4-methyl-1,3-thiazole-5-carboxylic acid], in experiment [2], the IC50 was in the range of 1 to 5 nM.

Turning to `Cc1ccccc1Oc1ccc(-c2nc(C)c(C(=O)O)s2)cc1-n1cnnn1` [compound 44, 2-[4-(2-methylphenoxy)-3-(1H-1,2,3,4-tetrazol-1-yl)phenyl]-4-methyl-1,3-thiazole-5-carboxylic acid], the IC50 in experiment [2] lay within 1 to 5 nM.

For `Cc1ccc(Oc2ccc(-c3nc(C)c(C(=O)O)s3)cc2-n2cnnn2)cc1` [compound 45, 2-[4-(4-methylphenoxy)-3-(1H-1,2,3,4-tetrazol-1-yl)phenyl]-4-methyl-1,3-thiazole-5-carboxylic acid], the IC50 in experiment [2] lay within 1 to 5 nM. With `Cc1cc(F)cc(Oc2ccc(-c3nc(C)c(C(=O)O)s3)cc2-n2cnnn2)c1` [compound 46, 2-[4-(3-fluoro-5-methylphenoxy)-3-(1H-1,2,3,4-tetrazol-1-yl)phenyl]-4-methyl-1,3-thiazole-5-carboxylic acid], the IC50 in experiment [2] was in the range of 1 to 5 nM. As for `Cc1nc(-c2ccc(Oc3cc(F)ccc3F)c(-n3cnnn3)c2)sc1C(=O)O` [compound 47, 2-[4-(2,5-difluorophenoxy)-3-(1H-1,2,3,4-tetrazol-1-yl)phenyl]-4-methyl-1,3-thiazole-5-carboxylic acid], the IC50 in experiment [2] fell in the range of 1 to 5 nM. On to `Cc1ccc(F)c(Oc2ccc(-c3nc(C)c(C(=O)O)s3)cc2-n2cnnn2)c1` [compound 48, 2-[4-(2-fluoro-5-methylphenoxy)-3-(1H-1,2,3,4-tetrazol-1-yl)phenyl]-4-methyl-1,3-thiazole-5-carboxylic acid], for which the IC50 in experiment [2] fell in the range of 1 to 5 nM. Same read-out and setting: the figure for `Cc1nc(-c2ccc(SC(C)C)c(-n3cnnn3)c2)sc1C(=O)O` [compound 50, 4-methyl-2-[4-(propan-2-ylsulfanyl)-3-(1H-1,2,3,4-tetrazol-1-yl)phenyl]-1,3-thiazole-5-carboxylic acid] is 1 to 5 nM. For `Cc1ccc(Sc2ccc(-c3nc(C)c(C(=O)O)s3)cc2-n2cnnn2)cc1` [compound 51, 4-methyl-2-{4-[(4-methylphenyl)sulfanyl]-3-(1H-1,2,3,4-tetrazol-1-yl)phenyl}-1,3-thiazole 5-carboxylic acid], in experiment [2], the IC50 was in the range of 1 to 5 nM.
